Results on 4 compounds are retold here after US20240180800A1, “Oral Care Compositions Containing Stannous Ion Source” (Colgate-Palmolive Company, priority 2022, published 2024).

Common to all, as to type: physicochemical
Series [1] in a line: FTIR of SnF2-TSPP solution with antioxidant upon aging at 60° C. The protocol:
(§1) The effect of antioxidants on the stannous stability in the presence of tetrasodium pyrophosphate (TSPP) was examined. Samples of Sn(II) were prepared by dissolving TSPP and SnF2 in water with the final concentration of SnF2 equal to 2 wt. %. Antioxidant (butylated hydroxytoluene (BHT), butylated hydroxyanisole (BHA), or sodium ascorbyl phosphate (SAP)) was added to the samples with the molar ratio of SnF2:TSPP:antioxidant equal to 1:1:0.3. The pH of the solutions was adjusted with NaOH to pH 7. The solutions were not fully clear due to the high concentration of SnF2 and limited solubility of certain antioxidants. Some amount of the precipitate/undissolved material was evident in the vials.
Fourier transform infrared spectroscopy (FTIR): Infrared spectra were collected using a Bruker Vertex 70 FTIR spectrometer (Bruker Optics, Billerica, MA) equipped with a GladiATR diamond ATR accessory (Pike technologies, Madison, WI). The spectral range was […] and a resolution of 4 cm^−1 was used. All measurements were carried out at room temperature. The absorption spectrum of solution containing SnF2 and TSPP (herein after referred to as SnF2-TSPP) in the 850-1240 cm^−1 region at different time points: fresh, 1 week and 2 weeks aged at 60° C. was examined. […] The transformation of the complex was manifested in the peak shifts and intensity changes of phosphate bands. […]

Series [2] is described as follows: Iodine titration of Sn(II) in SnF2-TSPP solution with antioxidant upon aging at 60° C. The settings on record: for Sn(II) %: after 2 weeks of aging at 60° C. As to the method: as §1
Iodine titration: The stability of Sn (II) was further examined by iodine titration assay. Titration measurements were performed through indirect titration. 2 M citric acid solution was added to the samples in excess and 0.1 N Iodine was added until the solutions turned light brown. The samples were covered with parafilm and aluminum foil and left mixing in the dark for 2 hours. Then, titration with 0.1 N sodium thiosulfate standard was performed using a 25 mL Titrette Bottletop Burette (BrandTech Scientific, Inc., Essex, CT, USA) until the solutions turned clear. Sn(II) concentration was calculated based on the amount of sodium thiosulfate and iodine used in the reaction. The amount of Sn(II) present in the SnF2-TSPP solution at different time points: fresh, 1 week and 2 weeks aged at 60° C. with and without the antioxidant (SAP, BHA, or BHT) was measured. The result is in good agreement with the FTIR result discussed above. The amount of Sn(II) was highest in the sample with SAP after 2 weeks of 60° C. aging.
(§2) In order to identify the optimal concentration of antioxidants (SAP and sodium ascorbate) that can increase stannous stability in aqueous solutions, samples of Sn(II) with TSPP and various concentrations of SAP or sodium ascorbate were tested for the stability of Sn(II). Samples of Sn(II) were prepared by dissolving TSPP and SnF2 in water with the final concentration of SnF2 equal to 2 wt %. Antioxidant (SAP or sodium ascorbate) was added to the samples with the molar ratio of SnF2:TSPP:antioxidant equal to 1:1:x, where x was between 0.05 and 0.3. The pH of the solutions was adjusted with NaOH to pH=7.
Iodine titration: The stability of Sn (II) was further examined by iodine titration assay. Titration measurements were performed as described in Example 1.

The nature of series [3]: 119Sn NMR relative amount of Sn(II) in SnF2-TSPP solution with antioxidant upon aging at 60° C. The settings on record: for Sn(II) left relative to fresh sample: SnF2:TSPP:antioxidant 1:1:0.3, pH 7, after 2 weeks of aging at 60° C.; for Sn(II) content relative to fresh sample: pH 7, after 2 weeks of aging at 60° C. As to the method: as §1
Nuclear Magnetic Resonance (NMR): The stability of Sn (II) was further examined by Nuclear Magnetic Resonance (NMR). NMR measurements were performed on samples in the presence of 10% deuterium oxide (D20). All NMR spectra were acquired on a Bruker Avance spectrometer (Bruker-Biospin, Billerica, MA, USA) with a 5 mm liquid nitrogen cryogenic probe operating at 202 MHz for ^31P, and 186.5 MHz ^119Sn at 25° C. ^119Sn and ^31P NMR spectra were acquired on the samples of SnF2-TSPP with three antioxidants: SAP, BHA, or BHT. FIG. 3-5 show ^119Sn and ^31P NMR spectra of the samples upon aging. In the ^119Sn NMR spectra, the peak positioned at around −630 ppm corresponds to Sn(II) in solution at neutral pH. Once Sn(II) was oxidized to Sn(IV) upon aging, the Sn(II) peak intensity decreased and small Sn(IV) spikes appeared between −680 and −750 ppm. The relative amounts of Sn(II) compared to fresh sample were calculated by integrating the peak corresponding to Sn(II) in ^119Sn NMR spectra. The capacity of three […] to stabilize Sn(II) was compared by measuring the Sn(II) content in the samples. About 80% of Sn(II) was left in the samples in the presence of BHA and SAP after 2 weeks of aging at 60° C. BHT sample had 70% Sn(II) remaining after 2 weeks of aging. […] In the ^31P NMR spectra, the peak positioned at −8 ppm corresponds to TSPP.
as §2
Nuclear Magnetic Resonance (NMR): The stability of Sn (II) was further examined by Nuclear Magnetic Resonance (NMR). NMR measurements were performed as described in Example 1. ^119Sn and ^31P NMR spectra were acquired on the samples of SnF2-TSPP with SAP or sodium ascorbate at various SAP/Sn molar ratios, specifically between 0.05 and 0.3, upon aging at 60° C. FIGS. 9 and 10 show ^119Sn and ^31P NMR spectra of the samples upon aging. In the ^119Sn NMR spectra, the peak positioned at around −630 ppm corresponds to Sn(II) in solution at neutral pH. Once Sn(II) was oxidized to Sn(IV), the Sn(II) peak intensity decreased and small Sn(IV) spikes appeared between −680 and −750 ppm. […] The relative amounts of Sn(II) compared to fresh sample were quantified based on the Sn(II) NMR peak integral (FIG. 11A).

Series [4] can be described thus: Head-space O2 consumption (differential pressure) during Sn(II) oxidation. The settings on record: 29 mM SnF2, 29 mM TSPP, SAP/Sn molar ratios 0.05 and 0.3, 25° C., about 6.5 hours, pH about 6.5. As to the method:
Head-space O2 consumption: Stannous stability in presence of small amounts of SAP was further examined by measuring the rate of oxygen consumption during Sn(II) oxidation process. […] SnF2 was added last as a powder, and the flask was immediately scaled.

With `COc1ccc(O)c(C(C)(C)C)c1` [BHA, butylated hydroxyanisole], the “change of phosphate vibrational bands / stability of stannous-pyrophosphate complex” value in series [1] (SnF2:TSPP:antioxidant 1:1:0.3, pH 7, aged 2 weeks at 60° C.) is listed as “improved the stability of stannous-pyrophosphate complex but were less effective than SAP”. In series [2] (SnF2:TSPP:antioxidant 1:1:0.3, pH 7, after 2 weeks of 60° C. aging, compared to SnF2-TSPP solution alone), the “amount of Sn(II) remaining” value is “positive effect on Sn(II) stability”. Moreover, the “Sn(II) left relative to fresh sample” value in series [3] is recorded as “About 80%”.
`Cc1cc(C(C)(C)C)c(O)c(C(C)(C)C)c1` [BHT, butylated hydroxytoluene]: in series [2] (buffer, 336 h, pH 7), the “amount of Sn(II) remaining” value was “positive effect on Sn(II) stability”. Besides, the “Sn(II) left relative to fresh sample” value in series [3] came to 70%.
Turning to `O=C1O[C@H]([C@@H](O)CO)C([O-])=C1OP(=O)([O-])[O-].[Na+].[Na+].[Na+]` [SAP, sodium ascorbyl phosphate], the “amount of Sn(II) remaining” value in series [2] (buffer, 336 h, pH 7) is reported as “highest”. Further, in series [4], the “head-space differential pressure change (O2 consumption)” value is “no significant pressure drop”. Further, the “Sn(II) left relative to fresh sample” value in series [3] was “About 80%”. The “Sn(II) content relative to fresh sample” value in series [3] (higher SAP/Sn ratio (0.2, 0.3)) is on record as 72%; in series [3] (lower mole ratio of SAP/Sn (0.05, 0.1)), “about 90%”.
`O=C1O[C@H]([C@@H](O)CO)C([O-])=C1O.[Na+]` [sodium ascorbate]: in series [1] (antioxidant/Sn molar ratio 0.05 to 0.3, pH 7, fresh, 1 week and 2 weeks at 60° C.), the “stability of stannous-pyrophosphate complex” value is listed as “increased the stability of the stannous-pyrophosphate complex”. Besides, the “Sn(II) %” value is 70-75% in series [2] (higher ascorbate/Sn ratio (0.2, 0.3)) and “about 80%” in series [2] (lower ascorbate/Sn ratio (0.05, 0.1)).
